{"source": "patent US4511509A", "about": "“3-Alkylidine azetidine compound and their production” (Kowa Co. Ltd., priority 1982, dated 1985)", "experiment_in_all_cases": "antibacterial activity, MIC (Table)", "type_in_all_cases": "cell-based", "key": {"Salmonella typhi H - 901": {"test_system": "Salmonella typhi H - 901", "conditions": "Salmonella enterica"}, "Proteus inconstans 113": {"test_system": "Proteus inconstans 113", "conditions": "Providencia alcalifaciens"}, "[1]": {"test_system": "Escherichia coli NIHJ JC-2", "conditions": "NIHJJC2"}, "[2]": {"test_system": "Streptococcus aureus Smith"}, "Proteus inconstans 93": {"test_system": "Proteus inconstans 93", "conditions": "Providencia alcalifaciens"}, "[3]": {"test_system": "Escherichia coli 59 (PC ase II)"}, "[4]": {"test_system": "Pseudomonas aeruginosa NCTC 10490", "conditions": "NCTC10490"}, "[5]": {"test_system": "Escherichia coli RECl (PC ase I)"}, "[6]": {"test_system": "Klebsiella pneumoniae PCO 602", "conditions": "PCO602"}, "[7]": {"test_system": "Pseudomonas putida IID 5121", "conditions": "IID5121"}, "Serratia marcescens NHL": {"test_system": "Serratia marcescens NHL"}, "[8]": {"test_system": "Escherichia coli 68 (PC ase IV)"}, "[9]": {"test_system": "Bacillus subtilis ATCC 6633", "conditions": "ATCC6633"}, "[10]": {"test_system": "Streptococcus aureus 209p JC-1"}, "Proteus vulgaris IID874": {"test_system": "Proteus vulgaris IID874"}}}
{"smiles": "C/C(CO)=C1\\C(=O)N2C(C(=O)O)=C(Sc3ncccn3)C[C@H]12", "note": "[(5R)6(E)-(1-methyl-2-hydroxyethylidene)-3-(2-pyrimidinylthio)-1-azabicyclo[3.2.0]hept-2-en-7-one-2-carboxylic acid]", "values": [{"measurement": "MIC", "setting": "Salmonella typhi H - 901", "value": 0.2, "unit": "mg/L"}, {"measurement": "MIC", "setting": "Proteus inconstans 113", "value": 0.78, "unit": "mg/L"}, {"measurement": "MIC", "setting": "[1]", "value": 0.39, "unit": "mg/L"}, {"measurement": "MIC", "setting": "[2]", "value": 0.2, "unit": "mg/L"}, {"measurement": "MIC", "setting": "Proteus inconstans 93", "value": 0.2, "unit": "mg/L"}, {"measurement": "MIC", "setting": "[3]", "value": 0.2, "unit": "mg/L"}, {"measurement": "MIC", "setting": "[4]", "value": 1.56, "unit": "mg/L"}, {"measurement": "MIC", "setting": "[5]", "value": 0.39, "unit": "mg/L"}, {"measurement": "MIC", "setting": "[6]", "value": 0.39, "unit": "mg/L"}, {"measurement": "MIC", "setting": "[7]", "value": 100, "unit": "mg/L"}, {"measurement": "MIC", "setting": "Serratia marcescens NHL", "value": 0.78, "unit": "mg/L"}, {"measurement": "MIC", "setting": "[8]", "value": 0.2, "unit": "mg/L"}, {"measurement": "MIC", "setting": "[9]", "value": 0.78, "unit": "mg/L"}, {"measurement": "MIC", "setting": "[10]", "value": 0.05, "unit": "mg/L"}, {"measurement": "MIC", "setting": "Proteus vulgaris IID874", "value": 0.05, "unit": "mg/L"}]}
